# From patent US20260256792A1, “TREATMENT OF CHRONIC SPONTANEOUS URTICARIA BY ADMINISTERING (R)-2-[3-[4-AMINO-3-(2-FLUORO-4-PHENOXY-PHENYL)PYRAZOLO[3,4-D]PYRIMIDIN-1-YL]PIPERIDINE-1-CARBONYL]-4-METHYL-4-[4-(OXETAN-3-YL)PIPERAZIN-1-YL]PENT-2-ENENITRILE” (priority 2023, published 2026)
# Test system: angioedema in CSU patients
# Assay: Phase 2 CSU study: angioedema activity score over 7 days (AAS7)
# Assay type: in vivo, human
# Settings: 400 mg QPM; for AAS7 Post-baseline Mean (SD) / Participants with AAS7 = 0, Responder n (%) / AAS7 % Change difference for rilzabrutinib vs. placebo LS Mean (95% CI) / AAS7 % Change from baseline LS Mean (SE) / AAS7 Change difference for rilzabrutinib vs. placebo LS Mean (95% CI) / AAS7 Change from baseline LS Mean (SE) / AAS7 = 0, Non-responder n (%) / AAS7 = 0, OR (95% CI) for rilzabrutinib vs. placebo / AAS7 = 0, RRD (%) for rilzabrutinib vs. placebo (95% CI): angioedema at baseline; for Non-responder n (%), AAS7 = 0 / OR (95% CI) for rilzabrutinib vs. placebo, AAS7 = 0 / RRD (%) for rilzabrutinib vs. placebo (95% CI), AAS7 = 0 / Responder n (%), AAS7 = 0: outlier removed
# From the text: The study comprises a 12 week, randomized, double-blind, placebo-controlled, multi-center, dose-ranging efficacy and safety phase, followed by a 40 week open label extension (OLE) phase (see FIG. 1). The study consists of three phases and an optional OLE phase. […] The weekly angioedema activity score (AAS7) was proposed as a tertiary endpoint. […] Patients were to complete the AAS using the e-diary. The e-diary was to be used once daily on the same time of each day recording of participant's answers to the angioedema activity score over 7 days (AAS7) questionnaire.
compound,measurement,setting,value
"CC(C)(C=C(C#N)C(=O)N1CCC[C@@H](n2nc(-c3ccc(Oc4ccccc4)cc3F)c3c(N)ncnc32)C1)N1CCN(C2COC2)CC1 [rilzabrutinib, (R)-2-[3-[4-amino-3-(2-fluoro-4-phenoxy-phenyl)pyrazolo[3,4-d]pyrimidin-1-yl]piperidine-1-carbonyl]-4-methyl-4-[4-(oxetan-3-yl)piperazin-1-yl]pent-2-enenitrile]",AAS7 Post-baseline Mean (SD),"Week 8, omalizumab-naïve",24.98 (23.29)
same,"Participants with AAS7 = 0, Responder n (%)","Week 8, omalizumab-naïve",7 (25.9) n (%)
same,AAS7 % Change difference for rilzabrutinib vs. placebo LS Mean (95% CI),"Week 9, ITT","1.53 (−27.52, 30.59) %"
same,AAS7 % Change from baseline LS Mean (SE),"Week 9, ITT",−48.50 (10.95) %
same,AAS7 Change difference for rilzabrutinib vs. placebo LS Mean (95% CI),"Week 9, ITT","2.98 (−7.44, 13.40)"
same,AAS7 Change from baseline LS Mean (SE),"Week 9, ITT",−26.47 (3.93)
same,AAS7 Post-baseline Mean (SD),"Week 9, ITT",27.24 (21.46)
same,"Non-responder n (%), AAS7 = 0","Week 9, omalizumab-naïve",24 (64.9) n (%)
same,"OR (95% CI) for rilzabrutinib vs. placebo, AAS7 = 0","Week 9, omalizumab-naïve",0.520
same,"RRD (%) for rilzabrutinib vs. placebo (95% CI), AAS7 = 0","Week 9, omalizumab-naïve",−15.0 %
same,"Responder n (%), AAS7 = 0","Week 9, omalizumab-naïve",13 (35.1) n (%)
same,AAS7 % Change from baseline LS Mean (SE),"Week 9, omalizumab-naïve",−47.25 (11.58) %
same,"AAS7 = 0, Non-responder n (%)","Week 9, omalizumab-naïve",22 (81.5) n (%)
same,"AAS7 = 0, OR (95% CI) for rilzabrutinib vs. placebo","Week 9, omalizumab-naïve",0.431
same,"AAS7 = 0, RRD (%) for rilzabrutinib vs. placebo (95% CI)","Week 9, omalizumab-naïve",−15.5 %
same,AAS7 Post-baseline Mean (SD),"Week 9, omalizumab-naïve",27.96 (21.62)
same,"Participants with AAS7 = 0, Responder n (%)","Week 9, omalizumab-naïve",5 (18.5) n (%)
same,AAS7 % Change difference for rilzabrutinib vs. placebo LS Mean (95% CI),"Week 10, ITT","−1.14 (−41.08, 38.79) %"
same,AAS7 % Change from baseline LS Mean (SE),"Week 10, ITT",−50.13 (14.94) %
same,AAS7 Change difference for rilzabrutinib vs. placebo LS Mean (95% CI),"Week 10, ITT","2.53 (−8.76, 13.81)"
same,AAS7 Change from baseline LS Mean (SE),"Week 10, ITT",−27.81 (4.28)
same,AAS7 Post-baseline Mean (SD),"Week 10, ITT",26.59 (23.15)
same,"Non-responder n (%), AAS7 = 0","Week 10, omalizumab-naïve",20 (54.1) n (%)
same,"OR (95% CI) for rilzabrutinib vs. placebo, AAS7 = 0","Week 10, omalizumab-naïve",0.927
same,"RRD (%) for rilzabrutinib vs. placebo (95% CI), AAS7 = 0","Week 10, omalizumab-naïve",−1.9 %
same,"Responder n (%), AAS7 = 0","Week 10, omalizumab-naïve",17 (45.9) n (%)
same,"AAS7 = 0, Non-responder n (%)","Week 10, omalizumab-naïve",20 (74.1) n (%)
same,"AAS7 = 0, OR (95% CI) for rilzabrutinib vs. placebo","Week 10, omalizumab-naïve",0.616
same,"AAS7 = 0, RRD (%) for rilzabrutinib vs. placebo (95% CI)","Week 10, omalizumab-naïve",−9.2 %
same,AAS7 Post-baseline Mean (SD),"Week 10, omalizumab-naïve",27.70 (22.96)
same,"Participants with AAS7 = 0, Responder n (%)","Week 10, omalizumab-naïve",7 (25.9) n (%)
same,AAS7 % Change difference for rilzabrutinib vs. placebo LS Mean (95% CI),"Week 11, ITT","7.61 (−19.90, 35.12) %"
same,AAS7 Change difference for rilzabrutinib vs. placebo LS Mean (95% CI),"Week 11, ITT","5.18 (−6.05, 16.41)"
same,AAS7 Change from baseline LS Mean (SE),"Week 11, ITT",−28.68 (4.16)
same,AAS7 Post-baseline Mean (SD),"Week 11, ITT",26.34 (24.19)
same,"Non-responder n (%), AAS7 = 0","Week 11, omalizumab-naïve",20 (54.1) n (%)
same,"OR (95% CI) for rilzabrutinib vs. placebo, AAS7 = 0","Week 11, omalizumab-naïve",0.819
same,"RRD (%) for rilzabrutinib vs. placebo (95% CI), AAS7 = 0","Week 11, omalizumab-naïve",−4.7 %
same,"Responder n (%), AAS7 = 0","Week 11, omalizumab-naïve",17 (45.9) n (%)
same,"AAS7 = 0, Non-responder n (%)","Week 11, omalizumab-naïve",19 (70.4) n (%)
same,"AAS7 = 0, OR (95% CI) for rilzabrutinib vs. placebo","Week 11, omalizumab-naïve",0.650
same,"AAS7 = 0, RRD (%) for rilzabrutinib vs. placebo (95% CI)","Week 11, omalizumab-naïve",−8.6 %
same,AAS7 Post-baseline Mean (SD),"Week 11, omalizumab-naïve",27.44 (24.07)
same,"Participants with AAS7 = 0, Responder n (%)","Week 11, omalizumab-naïve",8 (29.6) n (%)
same,AAS7 % Change difference for rilzabrutinib vs. placebo LS Mean (95% CI),"Week 12, ITT","8.18 (−17.80, 34.16) %"
same,AAS7 % Change from baseline LS Mean (SE),"Week 12, ITT",−54.80 (9.75) %
same,AAS7 Change difference for rilzabrutinib vs. placebo LS Mean (95% CI),"Week 12, ITT","6.68 (−4.00, 17.35)"
same,AAS7 Change from baseline LS Mean (SE),"Week 12, ITT",−28.63 (4.01)
same,AAS7 Post-baseline Mean (SD),"Week 12, ITT",24.92 (22.92)
same,"Non-responder n (%), AAS7 = 0","Week 12, omalizumab-naïve",24 (64.9) n (%)
same,"OR (95% CI) for rilzabrutinib vs. placebo, AAS7 = 0","Week 12, omalizumab-naïve",0.516
same,"RRD (%) for rilzabrutinib vs. placebo (95% CI), AAS7 = 0","Week 12, omalizumab-naïve",−15.0 %
same,"Responder n (%), AAS7 = 0","Week 12, omalizumab-naïve",13 (35.1) n (%)
same,"AAS7 = 0, Non-responder n (%)","Week 12, omalizumab-naïve",21 (77.8) n (%)
same,"AAS7 = 0, OR (95% CI) for rilzabrutinib vs. placebo","Week 12, omalizumab-naïve",0.571
same,"AAS7 = 0, RRD (%) for rilzabrutinib vs. placebo (95% CI)","Week 12, omalizumab-naïve",−11.2 %
same,AAS7 Change difference for rilzabrutinib vs. placebo LS Mean (95% CI),"Week 12, omalizumab-naïve","6.41 (−5.00, 17.81)"
same,AAS7 Change from baseline LS Mean (SE),"Week 12, omalizumab-naïve",−26.98 (4.16)
same,AAS7 Post-baseline Mean (SD),"Week 12, omalizumab-naïve",25.87 (23.04)
